One assay has as its system mouse aortic ring. Put plainly: In Vitro Aortic Ring Angiogenesis Assay. Format: cell-based. Particulars: 120 h; for activity at 40 µM: 5 days.
Assay [1] addresses T1, PTEN (Homo sapiens, UniProt P60484). Put plainly: PTEN Inhibition Assay: General Screening. It counts as biochemical.
Assay [2] addresses T1, PTEN. Put plainly: PTEN Inhibition Assay: IC50 Determinations. Format: biochemical.
Another assay concerns the target T2, PTP1B (Homo sapiens, UniProt P18031).
T2 sequence (P18031 1-435): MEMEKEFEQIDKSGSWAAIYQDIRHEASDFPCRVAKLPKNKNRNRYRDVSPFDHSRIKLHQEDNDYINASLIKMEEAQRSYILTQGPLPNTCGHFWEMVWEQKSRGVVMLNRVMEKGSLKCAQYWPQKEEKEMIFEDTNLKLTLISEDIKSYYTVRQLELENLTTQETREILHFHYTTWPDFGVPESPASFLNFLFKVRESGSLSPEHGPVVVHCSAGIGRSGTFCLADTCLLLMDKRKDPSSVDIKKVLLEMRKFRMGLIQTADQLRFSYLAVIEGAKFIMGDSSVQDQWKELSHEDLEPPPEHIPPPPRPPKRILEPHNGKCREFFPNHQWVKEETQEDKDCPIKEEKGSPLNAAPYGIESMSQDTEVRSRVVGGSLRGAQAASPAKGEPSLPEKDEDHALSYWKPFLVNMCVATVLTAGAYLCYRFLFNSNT
Put plainly: PTP1B Inhibition Assay: IC50 Determinations. It counts as biochemical.

The subject of the next assay is MEF PTEN wt. Description: Migration Assay, MEF PTEN wt. It counts as cell-based, mouse.
The next assay concerns MEF PTEN null. Description: Migration Assay, MEF PTEN null. It counts as cell-based, mouse.
Setting [3] is: read-out: Branch (% of control).
[4] abbreviates: read-out: % Inhibition @ 250 uM.
Where [5] appears, read: 250 uM, Table 27 isatins, read-out: % Inhibition @250 uM.

Values joined by “and” are separate entries in the source; they are usually repeats but may differ in a detail not shown here. Equal entries are not always repeated. Where two headings read alike, the source gives them in different places. Where only a bound is given, the exact number is not on record here.

T1 sequence (P60484 whole entry, species assumed): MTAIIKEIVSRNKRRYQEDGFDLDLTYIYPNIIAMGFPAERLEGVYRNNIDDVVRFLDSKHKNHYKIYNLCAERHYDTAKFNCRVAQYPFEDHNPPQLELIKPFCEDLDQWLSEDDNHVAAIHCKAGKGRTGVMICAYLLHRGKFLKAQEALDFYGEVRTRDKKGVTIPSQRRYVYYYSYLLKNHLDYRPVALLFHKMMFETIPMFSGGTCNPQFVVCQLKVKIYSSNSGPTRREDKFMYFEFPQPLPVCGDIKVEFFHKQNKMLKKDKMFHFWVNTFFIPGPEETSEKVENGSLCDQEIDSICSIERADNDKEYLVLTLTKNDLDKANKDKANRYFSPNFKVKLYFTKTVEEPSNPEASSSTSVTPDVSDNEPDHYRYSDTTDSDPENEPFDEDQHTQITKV

In the case of `O=c1cc(N2CCOCC2)oc2c(-c3ccccc3)cccc12` [LY294002, reference compound], the activity at 40 µM lay in the range of 0 to 0.8% with mouse aortic ring (setting [3]) and 0 to 2% in the assay with mouse aortic ring (read-out: Stem (% of control)).

Take `Cc1ccc(C(=O)Nc2ccc3c(c2)C(=O)C(=O)c2ccccc2-3)cc1` [SF1779-000]: the inhibition at 250 µM on PTEN [1] (setting [4]) is 99.8%. The half-maximal inhibitory concentration (IC50) at PTEN [2] is 0.342 µM; against PTP1B it was 0.233 µM. For the same molecule, the activity at 5 µM in the assay on mouse aortic ring (setting [3]) is 112 to 138%; in the assay on mouse aortic ring (read-out: Stem (% of control)), 92 to 125%. Besides, the “migration number, Average” value was 20.60 and 18.00 with MEF PTEN wt; 47.30 and 43.50 with MEF PTEN null.

Turning to `O=C(COc1ccccc1[N+](=O)[O-])Nc1ccc2c(c1)C(=O)C(=O)c1ccccc1-2` [SF1796-000], the inhibition at 250 µM on PTEN [1] (setting [4]) turned out to be 99%. Besides, the IC50 was 0.65 µM at PTEN [2] (Table 29, read-out: PTEN IC50) and less than 10 µM on PTP1B (Table 29, read-out: PTP1B IC50).

As for `O=C1C(=O)c2cc(NS(=O)(=O)c3cccs3)ccc2-c2ccccc21` [SF1798-000], at PTEN [1] (setting [4]), the inhibition at 250 µM was 93.6%. Further, the IC50 against PTEN [2] was 0.369 µM; against PTP1B, less than 10 µM.

With `O=C(Nc1ccc2c(c1)C(=O)C(=O)c1ccccc1-2)c1cccs1` [SF1799-000], on PTEN [1] (setting [4]), the inhibition at 250 µM worked out at 99.4%. For the same molecule, the IC50 at PTEN [2] is 0.733 µM; against PTP1B, less than 10 µM.

For the molecule `O=C1C(=O)c2cc(NCc3ccccc3)ccc2-c2ccccc21` [SF1800-000], the inhibition at 250 µM at PTEN [1] (setting [4]) was found to be 98%. Moreover, the IC50 at PTEN [2] is 0.862 µM; against PTP1B, less than 10 µM.

In the case of `Cc1cc(C)cc(S(=O)(=O)Nc2ccc3c(c2)C(=O)C(=O)c2ccccc2-3)c1` [SF1801-000], the inhibition at 250 µM at PTEN [1] (setting [4]) was 95.3%. Further, the IC50 against PTEN [2] was 1.01 µM; on PTP1B, less than 10 µM.

On to `CC(C)(C)c1ccc(C(=O)Nc2ccc3c(c2)C(=O)C(=O)c2ccccc2-3)cc1` [SF1803-000], for which the inhibition at 250 µM at PTEN [1] (setting [4]) is 83%. Also, the IC50 was 14.6 µM at PTEN [2] (Table 29, read-out: PTEN IC50) and less than 1 µM at PTP1B (Table 29, read-out: PTP1B IC50).

For the molecule `O=C(O)CCC(=O)Nc1ccc2c(c1)C(=O)C(=O)c1ccccc1-2` [SF1804-000], on PTEN [1] (setting [4]), the inhibition at 250 µM is 98.6%. Further, the IC50 is 54.7 µM against PTEN [2] and 1 to 10 µM at PTP1B.

For the molecule `O=C(O)C(=O)Nc1ccc2c(c1)C(=O)C(=O)c1ccccc1-2` [SF1806-000], on PTEN [1] (setting [4]), the inhibition at 250 µM was found to be 98.1%. In addition, the IC50 is 12.1 µM against PTEN [2] and 1 to 10 µM against PTP1B.

For the molecule `O=C1Nc2ccc(Br)cc2C1=O` [SF1814-000], the inhibition at 250 µM on PTEN [1] (setting [5]) was 97.6%. The IC50 at PTEN [2] was 44.9 µM; against PTP1B, 10 to 100 µM.

As to `O=C1Nc2ccc(Cl)cc2C1=O` [SF1816-000], the inhibition at 250 µM on PTEN [1] (setting [5]) came to 95%. The IC50 is 80.7 µM on PTEN [2] (Table 29, read-out: PTEN IC50) and 10 to 100 µM at PTP1B (Table 29, read-out: PTP1B IC50).

Take `O=C1Nc2ccc(Br)cc2C1O` (stereo not drawn) [SF1818-000]: the inhibition at 250 µM at PTEN [1] (setting [5]) was found to be 97.8%. The IC50 on PTEN [2] (Table 29, read-out: PTEN IC50) is 31.7 µM; on PTP1B (Table 29, read-out: PTP1B IC50), less than 10 µM.

With `O=C1Nc2ccc(I)cc2C1=O` [SF1819-000], at PTEN [1] (setting [5]), the inhibition at 250 µM is 96%. The IC50 on PTEN [2] (Table 29, read-out: PTEN IC50) is 33.6 µM; at PTP1B (Table 29, read-out: PTP1B IC50), less than 10 µM.

Consider `O=C1Nc2ccc(F)cc2C1=O` [SF1820-000], for which the inhibition at 250 µM on PTEN [1] (setting [5]) came out at 94.6%. In addition, the IC50 at PTEN [2] (Table 29, read-out: PTEN IC50) is 61.9 µM; on PTP1B (Table 29, read-out: PTP1B IC50) it was 10 to 100 µM.

The term inhibition denotes how much of the control response was suppressed. For orientation: IC50 means the concentration that gives 50% inhibition.

For the origin of these results see US20070203098A1, “Pten Inhibitors” (priority 2004, published 2007).
